Reference: ChEMBL document CHEMBL5465560, “Selectivity Literature for EUbOPEN Chemogenomic Library” (2024)

Tests used:
[1] = target: Serine/threonine-protein kinase pim-1 (Homo sapiens, UniProt P11309); test: Selectivity interaction (Kinase panel (Z-LYTE Assay)) EUB0001632a PIM1; settings: at 10 µM
[2] = target: T1, Serine/threonine-protein kinase LATS2 (Homo sapiens) (UniProt Q9NRM7); test: Selectivity interaction (KinomeScan (DiscoverX)) EUB0001049a LATS2; settings: at 1 µM
T1 sequence (whole entry): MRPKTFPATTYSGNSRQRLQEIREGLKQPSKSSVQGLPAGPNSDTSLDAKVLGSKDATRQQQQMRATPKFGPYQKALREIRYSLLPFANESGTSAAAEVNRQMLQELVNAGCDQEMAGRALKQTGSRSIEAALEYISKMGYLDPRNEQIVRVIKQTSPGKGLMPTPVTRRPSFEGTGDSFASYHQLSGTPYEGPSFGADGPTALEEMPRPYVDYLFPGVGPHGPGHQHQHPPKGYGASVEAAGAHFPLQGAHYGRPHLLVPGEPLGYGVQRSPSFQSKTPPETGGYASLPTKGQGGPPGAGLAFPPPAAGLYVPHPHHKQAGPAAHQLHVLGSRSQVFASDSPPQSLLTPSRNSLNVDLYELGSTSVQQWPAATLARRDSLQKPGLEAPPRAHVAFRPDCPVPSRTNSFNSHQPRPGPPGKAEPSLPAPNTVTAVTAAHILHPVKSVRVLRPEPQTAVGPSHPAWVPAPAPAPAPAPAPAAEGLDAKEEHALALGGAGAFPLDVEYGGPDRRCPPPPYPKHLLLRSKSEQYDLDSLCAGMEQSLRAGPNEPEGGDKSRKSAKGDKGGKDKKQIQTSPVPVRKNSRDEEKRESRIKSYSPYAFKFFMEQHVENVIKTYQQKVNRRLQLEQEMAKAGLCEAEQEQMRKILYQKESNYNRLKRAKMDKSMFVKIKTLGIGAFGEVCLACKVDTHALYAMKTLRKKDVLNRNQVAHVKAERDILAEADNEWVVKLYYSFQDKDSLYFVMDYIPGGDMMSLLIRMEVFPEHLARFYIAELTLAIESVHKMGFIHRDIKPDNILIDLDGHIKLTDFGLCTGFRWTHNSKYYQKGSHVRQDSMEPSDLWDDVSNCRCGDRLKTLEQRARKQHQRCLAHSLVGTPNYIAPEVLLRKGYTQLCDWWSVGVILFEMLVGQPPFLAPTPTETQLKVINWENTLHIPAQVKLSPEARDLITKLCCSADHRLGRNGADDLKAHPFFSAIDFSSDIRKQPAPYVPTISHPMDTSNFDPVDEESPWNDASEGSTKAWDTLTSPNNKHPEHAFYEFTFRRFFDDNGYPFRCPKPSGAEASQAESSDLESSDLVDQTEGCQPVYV

[3] = target: Fibroblast growth factor receptor 3 (Homo sapiens, UniProt P22607); test: (§1) Selectivity interaction (ProQinase) EUB0000171b FGFR3
[4] = test system: Fibroblast growth factor receptor 3 (Homo sapiens), P22607 [G697C]; test: as §1
[5] = test system: Fibroblast growth factor receptor 3 (Homo sapiens), P22607 [K650M]; test: as §1
[6] = test system: Fibroblast growth factor receptor 3 (Homo sapiens), P22607 [K650E]; test: as §1
[7] = test system: T2, Discoidin domain-containing receptor 2 (Homo sapiens), Q16832 [T654M]; test: Selectivity interaction (ProQinase) EUB0000171b DDR2
T2 sequence (whole entry): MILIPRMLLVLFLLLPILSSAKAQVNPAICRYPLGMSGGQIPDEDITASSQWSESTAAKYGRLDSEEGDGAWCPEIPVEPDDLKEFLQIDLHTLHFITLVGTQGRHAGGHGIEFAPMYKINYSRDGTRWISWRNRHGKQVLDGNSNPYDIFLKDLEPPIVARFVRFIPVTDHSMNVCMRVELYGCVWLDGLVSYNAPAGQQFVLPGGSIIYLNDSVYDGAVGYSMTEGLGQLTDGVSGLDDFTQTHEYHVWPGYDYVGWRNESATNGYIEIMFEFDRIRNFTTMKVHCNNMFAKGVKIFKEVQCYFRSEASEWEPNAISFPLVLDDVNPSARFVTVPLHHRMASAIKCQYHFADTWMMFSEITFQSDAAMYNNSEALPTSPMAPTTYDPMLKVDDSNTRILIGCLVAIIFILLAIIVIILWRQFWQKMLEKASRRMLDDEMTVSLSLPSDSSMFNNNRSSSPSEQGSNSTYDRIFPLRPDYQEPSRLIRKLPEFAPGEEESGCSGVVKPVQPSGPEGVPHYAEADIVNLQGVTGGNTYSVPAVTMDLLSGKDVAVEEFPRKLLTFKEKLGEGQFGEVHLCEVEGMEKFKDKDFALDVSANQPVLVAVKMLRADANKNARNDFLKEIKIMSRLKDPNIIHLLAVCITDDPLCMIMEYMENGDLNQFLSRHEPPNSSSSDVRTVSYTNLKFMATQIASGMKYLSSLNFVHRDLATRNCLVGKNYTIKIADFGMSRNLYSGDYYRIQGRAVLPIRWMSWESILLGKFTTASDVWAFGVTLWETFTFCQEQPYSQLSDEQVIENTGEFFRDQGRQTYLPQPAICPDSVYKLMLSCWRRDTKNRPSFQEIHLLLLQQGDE

[8] = target: Protein kinase C alpha type (Homo sapiens, UniProt P17252); test: Selectivity interaction (SelectScreen profiling (Invitrogen)) EUB0000607a PRKCA; settings: at 2 µM

Sequence of Fibroblast growth factor receptor 3 (Homo sapiens), P22607 [K650E] (P22607 whole entry K650E, the tested form may be a part): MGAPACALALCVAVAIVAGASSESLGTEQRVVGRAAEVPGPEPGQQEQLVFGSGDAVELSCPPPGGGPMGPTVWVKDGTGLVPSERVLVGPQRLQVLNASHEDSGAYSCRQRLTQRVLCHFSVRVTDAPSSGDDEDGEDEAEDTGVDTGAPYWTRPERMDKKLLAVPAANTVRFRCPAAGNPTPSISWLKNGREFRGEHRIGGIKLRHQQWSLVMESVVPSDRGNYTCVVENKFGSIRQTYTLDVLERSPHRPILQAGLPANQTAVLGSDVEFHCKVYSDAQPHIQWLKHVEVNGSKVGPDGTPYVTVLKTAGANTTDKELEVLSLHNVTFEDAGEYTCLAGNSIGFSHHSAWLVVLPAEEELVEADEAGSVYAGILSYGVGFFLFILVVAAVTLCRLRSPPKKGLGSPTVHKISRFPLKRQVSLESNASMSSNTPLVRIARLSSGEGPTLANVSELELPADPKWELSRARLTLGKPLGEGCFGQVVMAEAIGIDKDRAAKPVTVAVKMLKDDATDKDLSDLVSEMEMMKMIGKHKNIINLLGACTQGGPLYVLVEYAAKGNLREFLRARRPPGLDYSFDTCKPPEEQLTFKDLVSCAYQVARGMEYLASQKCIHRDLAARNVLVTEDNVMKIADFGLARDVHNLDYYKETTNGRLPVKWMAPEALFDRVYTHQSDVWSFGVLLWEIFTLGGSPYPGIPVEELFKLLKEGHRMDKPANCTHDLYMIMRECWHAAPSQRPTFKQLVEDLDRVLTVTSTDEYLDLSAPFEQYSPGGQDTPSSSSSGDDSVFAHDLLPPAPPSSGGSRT
Sequence of Fibroblast growth factor receptor 3 (P22607 23-806 limits assumed): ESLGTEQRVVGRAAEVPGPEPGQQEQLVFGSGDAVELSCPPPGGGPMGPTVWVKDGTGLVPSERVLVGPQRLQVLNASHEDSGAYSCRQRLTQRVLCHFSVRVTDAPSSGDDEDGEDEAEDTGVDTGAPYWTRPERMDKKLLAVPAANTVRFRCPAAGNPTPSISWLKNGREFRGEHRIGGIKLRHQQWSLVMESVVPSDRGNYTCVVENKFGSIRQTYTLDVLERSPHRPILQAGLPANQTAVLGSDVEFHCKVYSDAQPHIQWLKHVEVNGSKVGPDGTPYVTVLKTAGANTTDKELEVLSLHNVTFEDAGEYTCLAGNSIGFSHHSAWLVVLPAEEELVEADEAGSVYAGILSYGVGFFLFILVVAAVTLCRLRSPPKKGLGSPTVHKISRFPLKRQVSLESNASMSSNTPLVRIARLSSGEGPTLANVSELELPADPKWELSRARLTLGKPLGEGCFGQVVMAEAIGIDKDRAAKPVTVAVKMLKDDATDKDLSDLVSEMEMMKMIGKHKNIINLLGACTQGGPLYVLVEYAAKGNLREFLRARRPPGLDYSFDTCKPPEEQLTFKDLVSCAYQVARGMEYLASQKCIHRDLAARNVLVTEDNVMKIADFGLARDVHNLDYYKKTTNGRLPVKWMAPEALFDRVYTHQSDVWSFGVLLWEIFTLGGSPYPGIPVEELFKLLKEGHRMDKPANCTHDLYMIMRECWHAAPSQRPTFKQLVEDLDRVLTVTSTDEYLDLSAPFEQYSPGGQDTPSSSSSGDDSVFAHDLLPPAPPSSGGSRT
Sequence of Fibroblast growth factor receptor 3 (Homo sapiens), P22607 [K650M] (P22607 whole entry K650M): as the sequence (P22607 whole entry K650E, the tested form may be a part) above, with E650M counted along it
Sequence of Fibroblast growth factor receptor 3 (Homo sapiens), P22607 [G697C] (P22607 whole entry G697C): as the sequence (P22607 whole entry K650E, the tested form may be a part) above, with E650K, G697C counted along it
Sequence of Serine/threonine-protein kinase pim-1 (P11309 whole entry, looked up): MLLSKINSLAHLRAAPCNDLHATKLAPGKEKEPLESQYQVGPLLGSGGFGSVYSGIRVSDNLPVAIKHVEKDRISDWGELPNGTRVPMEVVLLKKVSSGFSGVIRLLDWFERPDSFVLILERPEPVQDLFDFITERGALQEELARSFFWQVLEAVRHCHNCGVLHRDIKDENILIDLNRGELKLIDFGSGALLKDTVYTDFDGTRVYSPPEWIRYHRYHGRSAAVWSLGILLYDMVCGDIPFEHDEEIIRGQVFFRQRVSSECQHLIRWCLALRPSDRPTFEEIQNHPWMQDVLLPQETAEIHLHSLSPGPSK

**Q.** For `Cn1cc(-n2cnc3c(NCc4nc5cc(Cl)c(Cl)cc5[nH]4)nc(N4CCOCC4)nc32)cn1`, which % of control [1] is on record?
**A.** -1.78%

**Q.** How did the % of control [2] turn out when `COc1cc(Nc2nc(C)cc(-c3cnn4nc(OC)ccc34)n2)cc(C(F)(F)F)c1` was run?
**A.** 71%

**Q.** `C=CC(=O)Nc1cccc(C(=O)Nc2ccc(Nc3cc(-c4[nH]c(SC)nc4C)ccn3)cc2)c1` was tested. Which % of control ([3]; at 1 µM) did it give?
**A.** 98%

**Q.** What about the % of control ([3]; at 5 µM) of the same compound?
**A.** 78%

**Q.** And the % of control ([4]; at 1 µM)?
**A.** 103%

**Q.** What about the % of control ([4]; at 5 µM) of the same compound?
**A.** 83%

**Q.** What about the % of control ([5]; at 1 µM) of the same compound?
**A.** 97%

**Q.** What about the % of control ([5]; at 5 µM) of the same compound?
**A.** 72%

**Q.** And the % of control ([6]; at 1 µM)?
**A.** 104%

**Q.** What about the % of control ([6]; at 5 µM) of the same compound?
**A.** 79%

**Q.** What about the % of control ([7]; at 1 µM) of the same compound?
**A.** 89%

**Q.** What about the % of control ([7]; at 5 µM) of the same compound?
**A.** 70%

**Q.** With `CNC(=O)Nc1ccc(-c2nc(N3CC4CCC(C3)O4)c3cnn(C4CCC5(CC4)OCCO5)c3n2)cc1` as the compound, how does the % of inhibition [8] read?
**A.** 10%
